Consider 27 compounds from ChEMBL document CHEMBL3739357, “Replacement of cardiotoxic aminopiperidine linker with piperazine moiety reduces cardiotoxicity? Mycobacterium tuberculosis novel bacterial topoisomerase inhibitors” (Bioorg Med Chem, 2016).

The target of data set [1] is DNA gyrase subunit A/DNA gyrase subunit B (Mycobacterium tuberculosis (strain ATCC 25618 / H37Rv), UniProt P9WG45+P9WG47). Nature of the data set: Inhibition of Mycobacterium tuberculosis DNA gyrase assessed as inhibition of supercoiling activity using relaxed pBR322 plasmid as substrate after 30 mins.
Chain of DNA gyrase subunit A/DNA gyrase subunit B (P9WG45 whole entry): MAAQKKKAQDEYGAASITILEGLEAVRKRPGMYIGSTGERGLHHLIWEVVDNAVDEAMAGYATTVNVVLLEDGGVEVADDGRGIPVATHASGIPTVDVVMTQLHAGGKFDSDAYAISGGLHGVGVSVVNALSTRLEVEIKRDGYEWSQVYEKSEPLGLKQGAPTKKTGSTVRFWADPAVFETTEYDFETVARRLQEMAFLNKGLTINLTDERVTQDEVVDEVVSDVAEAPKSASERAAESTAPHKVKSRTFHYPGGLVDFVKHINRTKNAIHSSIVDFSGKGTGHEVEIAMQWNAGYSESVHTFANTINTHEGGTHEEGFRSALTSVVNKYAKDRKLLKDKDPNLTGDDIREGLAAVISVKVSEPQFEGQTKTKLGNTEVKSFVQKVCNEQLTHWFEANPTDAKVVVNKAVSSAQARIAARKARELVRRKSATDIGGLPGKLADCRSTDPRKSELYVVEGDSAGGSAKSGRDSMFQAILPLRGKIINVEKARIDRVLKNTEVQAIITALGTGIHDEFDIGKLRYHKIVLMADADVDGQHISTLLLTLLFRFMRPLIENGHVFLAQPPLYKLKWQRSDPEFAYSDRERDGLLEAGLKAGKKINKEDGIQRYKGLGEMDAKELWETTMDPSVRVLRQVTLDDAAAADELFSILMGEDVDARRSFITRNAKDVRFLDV
Chain of DNA gyrase subunit A/DNA gyrase subunit B (P9WG47 whole entry): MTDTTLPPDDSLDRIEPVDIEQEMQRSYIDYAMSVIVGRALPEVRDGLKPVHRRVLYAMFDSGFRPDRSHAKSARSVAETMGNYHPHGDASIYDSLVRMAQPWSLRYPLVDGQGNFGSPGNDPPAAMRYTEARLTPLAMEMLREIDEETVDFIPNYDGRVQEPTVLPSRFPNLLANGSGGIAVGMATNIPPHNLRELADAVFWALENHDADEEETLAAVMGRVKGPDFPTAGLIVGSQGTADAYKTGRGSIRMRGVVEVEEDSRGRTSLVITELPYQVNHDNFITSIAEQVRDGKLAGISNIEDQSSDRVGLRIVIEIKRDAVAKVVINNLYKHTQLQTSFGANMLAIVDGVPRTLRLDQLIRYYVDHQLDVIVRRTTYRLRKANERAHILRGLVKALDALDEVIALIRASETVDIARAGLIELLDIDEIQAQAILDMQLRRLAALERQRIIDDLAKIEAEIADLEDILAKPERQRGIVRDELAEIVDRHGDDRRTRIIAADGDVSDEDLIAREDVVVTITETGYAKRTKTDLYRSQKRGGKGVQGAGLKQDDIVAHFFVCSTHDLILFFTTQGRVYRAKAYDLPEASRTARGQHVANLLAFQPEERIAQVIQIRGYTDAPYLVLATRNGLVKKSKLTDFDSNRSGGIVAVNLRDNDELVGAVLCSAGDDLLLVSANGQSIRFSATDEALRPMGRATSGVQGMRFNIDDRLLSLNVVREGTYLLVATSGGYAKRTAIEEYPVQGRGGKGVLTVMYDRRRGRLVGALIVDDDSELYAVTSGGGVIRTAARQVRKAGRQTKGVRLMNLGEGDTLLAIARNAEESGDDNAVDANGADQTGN
Data set [2] relates to Mycobacterium tuberculosis. Nature of the data set: Antimycobacterial activity against Mycobacterium tuberculosis H37Rv after 7 days by alamar blue assay. It is filed as functional. Conditions: 168 h. (Resazurin is reduced to fluorescent resorufin, in cell work by metabolically active cells.)
A short description of data set [3]: Cytotoxicity against mouse RAW264.7 cells at 50 uM after 48 hrs by MTT assay. The class given is cell-based. The note with it: read-out: INH. For orientation: Formazan colour is commonly taken as a measure of viable cells.
The species named for data set [4] is Danio rerio. In words: Toxicity in zebrafish embryo assessed as artrio-ventricular ratio at 30 uM after 4 hrs. It is filed as organism-based. Conditions: in vivo.
The species entered for data set [5] is Danio rerio. Nature of the data set: Toxicity in zebrafish embryo assessed as heart rate at 10 uM after 4 hrs. The class given is organism-based. Conditions: in vivo.
The species entered for data set [6] is Danio rerio. Nature of the data set: Toxicity in zebrafish embryo assessed as heart rate at 30 uM after 4 hrs. The class given is organism-based. Conditions: in vivo.
Data set [7] is filed under the species Danio rerio. Nature of the data set: Toxicity in zebrafish embryo assessed as artrio-ventricular ratio at 10 uM after 4 hrs. The class given is organism-based. Conditions: in vivo.

In general, pIC50 refers to −log10 of the IC50, conventionally taken in molar units. The term MIC denotes the lowest concentration that inhibits growth of the organism. A lower MIC goes with a more susceptible organism.

pIC50: −log10 of the molar value. Values after ≈ are worked out from the molar mass of the structure shown. A value given as a limit tells only on which side of the number the result lay.

For `COc1cnc2ccc(=O)n(CCN3CCN(C(=O)Nc4ccc(Br)cc4)CC3)c2c1`, the pIC50 in data set [1] is 6.12. Further, in data set [2], the MIC turned out to be 3.21 µM (≈ 1.56 µg/mL). In addition, the cytotoxicity at 48 h, 50 µM in data set [3] came out at 24.4%.
On the same counts, the results for `COc1ccc(CNC(=S)N2CCN(CCn3c(=O)ccc4ncc(OC)cc43)CC2)cc1` are 4.81, 26.7 µM (≈ 12.5 µg/mL) and 17.1%.
`CC[C@@H](CO)NCCN[C@@H](CC)CO` [ETHAMBUTOL] displayed an MIC in data set [2] of 9.84 µM (≈ 2.01 µg/mL).
Regarding `COc1cnc2ccc(=O)n(CCN3CCN(C(=O)NCc4ccc(Cl)cc4)CC3)c2c1`, the negative-log IC50 (pIC50) in data set [1] was 6.04. Besides, the MIC in data set [2] is 6.6 µM (≈ 3.01 µg/mL). Further, the cytotoxicity at 48 h, 50 µM in data set [3] was 24.6%.
Take `COc1cnc2ccc(=O)n(CCN3CCN(C(=S)Nc4ccc(C(C)=O)cc4)CC3)c2c1`: in data set [1], the pIC50 was 4.78. The MIC in data set [2] is 10.7 µM (≈ 4.96 µg/mL). Further, the cytotoxicity at 48 h, 50 µM in data set [3] is 3.16%.
On the same counts, the results for `COc1cnc2ccc(=O)n(CCN3CCN(Cc4ccc(Br)cc4)CC3)c2c1` are 5.19, 13.7 µM (≈ 6.25 µg/mL) and 2.15%.
`COc1c(N2C[C@@H]3CCCN[C@@H]3C2)c(F)cc2c(=O)c(C(=O)O)cn(C3CC3)c12` [MOXIFLOXACIN]: 2.4 µM (≈ 0.963 µg/mL) was the least that counted as inhibitory in data set [2] (MIC).
As to `COc1cnc2ccc(=O)n(CCN3CCN(Cc4ccc(F)cc4)CC3)c2c1`, the pIC50 in data set [1] is 6.04. The MIC in data set [2] was 15 µM (≈ 5.95 µg/mL). In addition, the cytotoxicity at 48 h, 50 µM in data set [3] was found to be 26.4%.
On the same counts, the results for `COc1cnc2ccc(=O)n(CCN3CCN(Cc4ccc(Cl)cc4)CC3)c2c1` are 6.09, 10.1 µM (≈ 4.17 µg/mL) and 26.5%.
On the same counts, the results for `COc1cnc2ccc(=O)n(CCN3CCN(C(=O)Nc4ccc(C)cc4)CC3)c2c1` are 5.57, 7.41 µM (≈ 3.12 µg/mL) and 32.3%.
Turning to `CO[C@@H]1[C@@H](OC(N)=O)[C@@H](O)[C@H](Oc2ccc3c(O)c(NC(=O)c4ccc(O)c(CC=C(C)C)c4)c(=O)oc3c2C)OC1(C)C` [NOVOBIOCIN], in data set [2], the MIC was > 200 µM. Further, the cytotoxicity at 48 h, 50 µM in data set [3] is 19.3%.
Take `COc1cnc2ccc(=O)n(CCN3CCN(C(=S)Nc4ccc([N+](=O)[O-])cc4)CC3)c2c1`: the negative logarithm of the IC50 (pIC50) in data set [1] is 4.73. The MIC in data set [2] was found to be 26.7 µM (≈ 12.5 µg/mL). Also, the cytotoxicity at 48 h, 50 µM in data set [3] was determined as 17.3%.
Regarding `COc1cnc2ccc(=O)n(CCN3CCN(C(=O)Nc4ccc([N+](=O)[O-])cc4)CC3)c2c1`, the pIC50 in data set [1] is 6.54. The Activity result in the data set filed under Danio rerio [4], in the data set filed under Danio rerio [5], in the data set filed under Danio rerio [6] and in the data set filed under Danio rerio [7] was “Toxic” in each case. The compound further returned an MIC in data set [2] of 3.45 µM (≈ 1.56 µg/mL). The cytotoxicity at 48 h, 50 µM in data set [3] worked out at 5.08%.
On to `COc1cnc2ccc(=O)n(CCN3CCN(C(=S)Nc4ccc(F)cc4)CC3)c2c1`, for which the pIC50 in data set [1] is 4.83. This compound yielded an MIC in data set [2] of 14.2 µM (≈ 6.25 µg/mL). Also, the cytotoxicity at 48 h, 50 µM in data set [3] came out at 21.6%.
On the same counts, the results for `COc1cnc2ccc(=O)n(CCN3CCN(C(=S)Nc4ccc(C)cc4)CC3)c2c1` are 4.94, 10.7 µM (≈ 4.66 µg/mL) and 26.8%.
On the same counts, the results for `COc1cnc2ccc(=O)n(CCN3CCN(Cc4ccc([N+](=O)[O-])cc4)CC3)c2c1` are 6.01, 7.38 µM (≈ 3.13 µg/mL) and 37.6%.
Regarding `COc1cnc2ccc(=O)n(CCN3CCN(C(=O)Nc4ccc(F)cc4)CC3)c2c1`, the pIC50 in data set [1] was 4.94. Besides, the MIC in data set [2] came out at 14.7 µM (≈ 6.25 µg/mL). For the same compound, the cytotoxicity at 48 h, 50 µM in data set [3] is 25.2%.
On the same counts, the results for `COc1cnc2ccc(=O)n(CCN3CCN(C(=S)Nc4ccc(Cl)cc4)CC3)c2c1` are 4.89, 13.6 µM (≈ 6.25 µg/mL) and 6.59%.
On the same counts, the results for `COc1cnc2ccc(=O)n(CCN3CCN(C(=O)Nc4ccc(C(C)=O)cc4)CC3)c2c1` are 4.71, 26.9 µM (≈ 12.1 µg/mL) and 18.6%.
In the case of `COc1cnc2ccc(=O)n(CCN3CCN(C(=O)Nc4ccc(Cl)cc4)CC3)c2c1`, the pIC50 in data set [1] is 6.49. Also, the Activity entry in the data set listed under Danio rerio [4] and in the data set filed under Danio rerio [6] was “Toxic” throughout. Besides, in data set [2], 7.06 µM (≈ 3.12 µg/mL) was the least that counted as inhibitory (MIC). The cytotoxicity at 48 h, 50 µM in data set [3] was 27%.
Turning to `COc1ccc(CNC(=O)N2CCN(CCn3c(=O)ccc4ncc(OC)cc43)CC2)cc1`, the pIC50 in data set [1] was 4.84. In data set [2], this compound yielded an MIC of 27.7 µM (≈ 12.5 µg/mL). Also, in data set [3], the cytotoxicity at 48 h, 50 µM turned out to be 37.6%.
On the same counts, the results for `COc1cnc2ccc(=O)n(CCN3CCN(C(=S)NCc4ccc(Cl)cc4)CC3)c2c1` are 6.02, 4.31 µM (≈ 2.03 µg/mL) and 24.9%.
In the case of `COc1cnc2ccc(=O)n(CCN3CCN(C(=S)Nc4ccc(Br)cc4)CC3)c2c1`, in data set [1], the pIC50 was 6.31. The MIC in data set [2] stood at 3.8 µM (≈ 1.91 µg/mL). Besides, the cytotoxicity at 48 h, 50 µM in data set [3] was 1.06%.
On the same counts, the results for `COc1ccc(CN2CCN(CCn3c(=O)ccc4ncc(OC)cc43)CC2)cc1` are 5.87, 3.82 µM (≈ 1.56 µg/mL) and 15.9%.
As to `COc1cnc2ccc(=O)n(CCN3CCN(C(=O)Nc4ccccc4)CC3)c2c1`, the pIC50 in data set [1] was 4.87. In data set [2], this compound gave an MIC of 30.7 µM (≈ 12.5 µg/mL). The cytotoxicity at 48 h, 50 µM in data set [3] stood at 9.54%.
Turning to `COc1cnc2ccc(=O)n(CCN3CCN(Cc4ccccc4)CC3)c2c1`, the pIC50 in data set [1] was 6.03. For the same compound, in data set [2], the MIC is 4.12 µM (≈ 1.56 µg/mL). Moreover, the cytotoxicity at 48 h, 50 µM in data set [3] amounted to 15%.
On the same counts, the results for `COc1cnc2ccc(=O)n(CCN3CCN(C(=S)Nc4ccccc4)CC3)c2c1` are 4.81, 29.5 µM (≈ 12.5 µg/mL) and 32.6%.
